Experimental data: ChEMBL document CHEMBL1149967, “Synthesis and antitumor activity of novel distamycin derivatives” (Bioorg Med Chem Lett, 1996)

Experiments:
Mus musculus = test: In vivo inhibition of L1210 murine leukemia, expressed as optimal non toxic dose (CD2F1 mice were given an injection of […] i.p. and treated on day 1); assay type: functional
L1210 = test: In vitro inhibition of L1210 murine leukemia (Drug sensitivity was determined by counting surviving cells after 48 hr of continuous exposure to at least 4 conc. of drug); assay type: functional, cell-based; conditions: Mus musculus, L1210, 48 h

Structure (SMILES) | OD (Mus musculus) [mg/kg] | IC50 (L1210) [µg/mL]
Cl.Cn1cc(NC(=O)c2cc(NC(=O)c3cc(NC(=O)c4cc(NC(=O)c5ccc(N(CCCl)CCCl)cc5)nn4C)cn3C)cn2C)cc1C(=O)NCCC(=N)N | 3.13 | 0.0291
Cl.Cn1cc(NC(=O)c2cc(NC(=O)c3cc(NC(=O)c4nc(NC(=O)c5ccc(N(CCCl)CCCl)cc5)cn4C)cn3C)cn2C)cc1C(=O)NCCC(=N)N | 6.25 | 2
C=C(Br)C(=O)Nc1cc(C(=O)Nc2cc(C(=O)Nc3cc(C(=O)Nc4cc(C(=O)NCCC(=N)N)n(C)c4)n(C)c3)n(C)c2)n(C)n1.Cl | 6.25 | –
C=C(Br)C(=O)Nc1cn(C)c(C(=O)Nc2cc(C(=O)Nc3cc(C(=O)Nc4cc(C(=O)NCCC(=N)N)n(C)c4)n(C)c3)n(C)c2)n1.Cl | 6.25 | –
Cl.Cn1cc(NC(=O)c2cc(NC(=O)c3cc(NC(=O)c4ccc(N(CCCl)CCCl)cc4)cn3C)cn2C)cc1C(=O)NCCC(=N)N [TALLIMUSTINE CHLORIDE] | 3.13 | –
